Calls of active or inactive are those of the source. The rule behind the calls is not given here.

The target in assay [1] is Botulinum neurotoxin type A (Clostridium botulinum, UniProt P0DPI0). Description: Inhibition of Clostridium botulinum BoNT/A light chain assessed as inhibition of SNAP-25 (187-203) substrate hydrolysis by RP-HPLC-based assay in presence of excess Zn(II).
The target in assay [2] is Botulinum neurotoxin type A (Clostridium botulinum) (UniProt P0DPI0). Description: Competitive inhibition of Clostridium botulinum BoNT/A light chain assessed as inhibition of SNAP-25 (187-203) substrate hydrolysis by Dixon plot analysis.
Botulinum neurotoxin type A (Clostridium botulinum), sequence (P0DPI0 2-448 limits assumed): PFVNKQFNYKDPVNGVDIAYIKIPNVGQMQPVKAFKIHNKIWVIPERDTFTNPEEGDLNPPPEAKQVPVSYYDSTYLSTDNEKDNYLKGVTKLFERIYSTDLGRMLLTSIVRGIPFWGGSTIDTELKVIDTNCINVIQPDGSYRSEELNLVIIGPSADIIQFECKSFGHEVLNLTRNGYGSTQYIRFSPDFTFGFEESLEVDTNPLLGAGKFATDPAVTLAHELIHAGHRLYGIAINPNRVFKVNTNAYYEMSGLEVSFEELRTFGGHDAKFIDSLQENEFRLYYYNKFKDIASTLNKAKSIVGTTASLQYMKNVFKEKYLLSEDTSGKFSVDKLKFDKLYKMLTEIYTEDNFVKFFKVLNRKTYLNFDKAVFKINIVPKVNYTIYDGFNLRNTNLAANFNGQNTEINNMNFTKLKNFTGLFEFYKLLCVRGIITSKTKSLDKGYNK

Botulinum neurotoxin type A, sequence (P0DPI0 2-448 limits assumed): as above

On to `CCCCNC(=O)c1cc(NC(=O)c2ccc(C(=O)Nc3cc(C(=O)NCCCC)cc(C4=NCCN4)c3)cc2)cc(C2=NCCN2)c1`, for which the Ki in assay [1] was found to be 8520 nM.
As for `O=C(NCCCCNc1ccnc2cc(Cl)ccc12)c1cc(NC(=O)c2ccc(C(=O)Nc3cc(C(=O)NCCCCNc4ccnc5cc(Cl)ccc45)cc(C4=NCCN4)c3)cc2)cc(C2=NCCN2)c1`, the inhibitory constant (Ki) in assay [1] turned out to be 900 nM. Further, the inhibition entry in assay [2] is “Active”.
Taken in the same sequence, the figures for `O=C(NCCCNc1ccnc2cc(Cl)ccc12)c1cc(NC(=O)c2ccc(C(=O)Nc3cc(C(=O)NCCCNc4ccnc5cc(Cl)ccc45)cc(C4=NCCN4)c3)cc2)cc(C2=NCCN2)c1` were 572 nM and “Active”.
Taken in the same sequence, the figures for `O=C(NCCNc1ccnc2cc(Cl)ccc12)c1cc(NC(=O)c2ccc(C(=O)Nc3cc(C(=O)NCCNc4ccnc5cc(Cl)ccc45)cc(C4=NCCN4)c3)cc2)cc(C2=NCCN2)c1` were 2120 nM and “Active”.

The record behind these values is ChEMBL document CHEMBL2034839, “Pharmacophore Refinement Guides the Rational Design of Nanomolar-Range Inhibitors of the Botulinum Neurotoxin Serotype A Metalloprotease” (ACS Med Chem Lett, 2010).
